Test results reported in PubChem BioAssay (NCI).
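Tested at 5 concentrations; 48 h exposure; 96-well plates; endpoints linearly interpolated, else capped at highest concentration. At the GI50, growth is halved. The concentration for full growth arrest is given as TGI.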

What was measured:
Experiment in all cases: inhibition of tumour cell growth, NCI panel, 48 h
U251 CNS = test system: U251 CNS
RXF 393 renal = test system: RXF 393 renal
OVCAR-5 ovarian = test system: OVCAR-5 ovarian
OVCAR-8 ovarian = test system: OVCAR-8 ovarian
SN12C renal = test system: SN12C renal
IGROV1 ovarian = test system: IGROV1 ovarian
M14 melanoma = test system: M14 melanoma
SK-MEL-28 melanoma = test system: SK-MEL-28 melanoma
MOLT-4 leukemia = test system: MOLT-4 leukemia
HOP-92 NSCLC = test system: HOP-92 NSCLC

Row | SMILES | TGI (U251 CNS) | TGI (RXF 393 renal) | TGI (OVCAR-5 ovarian) | TGI (OVCAR-8 ovarian) | TGI (SN12C renal) | TGI (IGROV1 ovarian) | TGI (M14 melanoma) | TGI (SK-MEL-28 melanoma) | TGI (MOLT-4 leukemia) | TGI (HOP-92 NSCLC) | GI50 (U251 CNS) | GI50 (OVCAR-8 ovarian) | GI50 (SN12C renal) | GI50 (IGROV1 ovarian) | GI50 (M14 melanoma) | GI50 (HOP-92 NSCLC) | GI50 (SK-MEL-28 melanoma) | GI50 (MOLT-4 leukemia) | GI50 (RXF 393 renal) | GI50 (OVCAR-5 ovarian)
1 | S=c1nc(-c2ccnc(-c3nc(=S)[nH][nH]3)c2)[nH][nH]1 | > 100 µM | > 100 µM | > 100 µM | > 100 µM | > 100 µM | > 100 µM | > 100 µM | > 100 µM | > 100 µM |  |  |  |  |  |  |  |  |  |  | 
2 | COc1cc2c(c(OC)c1OC)-c1ccc(SC)c(=O)cc1[C@@H](NC(=O)c1ccc(Cl)cc1)CC2 | < 0.01 µM | 19.4 µM |  | > 100 µM | 12.7 µM | > 100 µM | 2.3 µM | > 100 µM | > 100 µM |  |  |  |  |  |  |  |  |  |  | 
3 | COc1cc2cc3c4c(cc(OC)c(OC)c4c2cc1OC)CCN3C(=O)CCC(=O)NCCCN(C)C | > 100 µM | > 100 µM |  | > 100 µM | > 100 µM | > 100 µM | 32 µM | > 100 µM | > 100 µM | 64.6 µM |  |  |  |  |  |  |  |  |  | 
4 | CC1=NN(C(=O)c2ccccc2O)C(=O)/C1=C/c1cccc([N+](=O)[O-])c1 | > 100 µM |  | > 100 µM | > 100 µM | 98.7 µM |  | > 100 µM | > 100 µM | > 100 µM | > 100 µM |  |  |  |  |  |  |  |  |  | 
5 | CC(=O)OC1CC2C(=O)C(=O)C1(C)C2(C)C (stereo unspecified) | > 100 µM |  | > 100 µM | > 100 µM | > 100 µM | > 100 µM | > 100 µM | > 100 µM | > 100 µM | > 100 µM |  |  |  |  |  |  |  |  |  | 
6 | N[C@@H]1CCCC[C@@H]1N.O=P([O-])([O-])CN(CP(=O)([O-])[O-])CP(=O)([O-])[O-].[Pt+2] | > 100 µM |  |  | > 100 µM | > 100 µM | > 100 µM | > 100 µM | > 100 µM | > 100 µM | > 100 µM | > 100 µM | > 100 µM | > 100 µM | > 100 µM | > 100 µM | > 100 µM | > 100 µM | > 100 µM |  | 
7 | O=C(c1ccc(Cl)cc1)C1OC12C(=O)Nc1ccccc12 (stereo unspecified) | 32 µM | 29.6 µM | 36.2 µM | 36 µM | 19.3 µM | 39.1 µM | 19 µM | 29.5 µM |  | 30 µM |  |  |  |  |  |  |  |  |  | 
8 | CC1CC[C@]2(C(=O)O)CCC3(C)C(=CCC4[C@@]5(C)CC[C@H](OS(=O)(=O)c6ccccc6)C(C)(C)C5CC[C@]43C)[C@@H]2[C@H]1C (stereo partly specified) | > 100 µM |  | > 100 µM | > 100 µM | > 100 µM | > 100 µM | > 100 µM | > 100 µM | > 100 µM | > 100 µM |  |  |  |  |  |  |  |  |  | 
9 | Cc1c(C(=O)CSc2nc3ccccc3[nH]2)c(=O)n(-c2ccccc2)n1C | > 100 µM |  | > 100 µM | > 100 µM | > 100 µM | > 100 µM | > 100 µM | > 100 µM | > 100 µM | > 100 µM |  |  |  |  |  |  |  |  |  | 
10 | CO[C@@]12[C@@H]3NC3CN1C1=C(C(=O)C(N)=C(C)C1=O)[C@@H]2COC(N)=O (stereo partly specified) |  | 4.16 µM | 6.99 µM |  | > 40.9 µM | 4 µM | 1.82 µM | 5.47 µM |  | 5.73 µM |  |  |  | 1.3 µM |  | 1.44 µM | 1.39 µM | 0.278 µM | 1.27 µM | 1.02 µM
11 | OCNCCNc1nc2ccccc2c2[nH]c3ccccc3c12 | 1.9 µM | 5.85 µM | 6.75 µM | 8.41 µM | 3.66 µM | 7.31 µM |  | 6.84 µM | > 50 µM |  | 0.506 µM | 0.809 µM | 1.26 µM | 1.14 µM |  |  | 1.01 µM | 0.809 µM | 1.11 µM | 0.582 µM
12 | CCOC(=O)[C@H]1Nc2ccccc2C2c3ccccc3CC21 (stereo partly specified) | > 100 µM | 31.1 µM | > 100 µM | > 100 µM | 96.3 µM | > 100 µM | > 100 µM | > 100 µM | > 100 µM |  |  |  |  |  |  |  |  |  |  | 
13 | CC1OC(OC2CCC3(C=O)C4CCC5(C)C(C6=CC(=O)OC6)CCC5(O)C4CCC3(O)C2)C(O)C(O)C1O (stereo unspecified) | 0.000156 µM | 8.12e-05 µM |  | 6.21e-05 µM | 3.74e-05 µM | 0.0179 µM |  | 0.000135 µM | 1.6e-05 µM | 0.000102 µM |  |  |  |  |  |  |  |  |  | 0.0112 µM
14 | COc1ccc(CCN=C2CCC(C(=O)NCCc3ccc(OC)c(OC)c3)N2)cc1OC (stereo unspecified) | > 100 µM |  | > 100 µM | > 100 µM | > 100 µM | > 100 µM | > 100 µM | > 100 µM | > 100 µM | > 100 µM |  |  |  |  |  |  |  |  |  | 
15 | O=C(Cc1csc2nc(-c3ccc(Br)cc3)cn12)N/N=C/c1ccc(O)cc1 | > 100 µM |  | > 100 µM | 25.9 µM | 44.1 µM | 39.7 µM | 23.7 µM | > 100 µM |  | 68.9 µM | 21.3 µM | 7.07 µM | 15.4 µM | 10.6 µM | 10.2 µM | 18.9 µM | 60 µM | 4.21 µM |  | 27.6 µM
16 | N=C1C=C(N)C(=O)c2[nH]c(=O)ccc21 | 3.6 µM | 3.29 µM | 4.78 µM |  | 3.16 µM | 3.39 µM | 28.7 µM | 36.8 µM |  | 3.58 µM |  |  |  |  |  |  |  |  |  | 
17 | C/C=C1\C(=O)OC2CCN3CCC(COC(=O)C(C)(O)C(C)C1O)C23 (stereo unspecified) | > 100 µM |  | > 100 µM | > 100 µM | > 100 µM | > 100 µM | > 100 µM | > 100 µM | > 100 µM | > 100 µM |  |  |  |  |  |  |  |  |  | 
18 | O=C1C=CC2(C=C1)C[C@H](NC(=O)C(F)(F)F)C(=O)O2 | > 100 µM | > 100 µM | > 100 µM | > 100 µM | > 100 µM |  | > 100 µM | 38.3 µM | > 100 µM |  |  |  |  |  |  |  |  |  |  | 
19 | COc1nc(NC2OC(COC(C)=O)C(OC(C)=O)C(OC(C)=O)C2OC(C)=O)c(-c2csc(N)n2)c(=O)n1C (stereo unspecified) | > 100 µM |  | > 100 µM | > 100 µM | > 100 µM | > 100 µM | > 100 µM | > 100 µM | > 100 µM | > 100 µM |  |  |  |  |  |  |  |  |  | 
20 | CSC1=NCC2(S1)c1ccccc1N(C(=O)OC(C)(C)C)C2N1CCCCC1 (stereo unspecified) |  | > 100 µM | > 100 µM | > 100 µM | > 100 µM | > 100 µM | > 100 µM | > 100 µM | > 100 µM | > 100 µM |  | > 100 µM | > 100 µM | > 100 µM | > 100 µM | 51.5 µM | > 100 µM | > 100 µM | 78 µM | > 100 µM
21 | C[C@@H]1C[C@]2(C[C@@H](C)C3[C@@H](CC4(C)[C@@H]5CCC6C(C)(C)OC(=O)C=C[C@]67C[C@@]5(CC[C@]34C)OO7)O2)OC1=O (stereo partly specified) | > 100 µM | > 100 µM | > 100 µM | > 100 µM | > 100 µM | > 100 µM | > 100 µM | > 100 µM |  |  |  |  |  |  |  |  |  |  |  | 
22 | CCCCCCCCCCCCCc1nn[nH]n1 | 32.8 µM | 43.4 µM | 33 µM | 81.1 µM | 35.9 µM | 41.1 µM | 31.5 µM | 31.7 µM |  | 29.3 µM |  |  |  |  |  |  |  |  |  | 
23 | C/C(CC(=O)N(C(C)C)C(C)C)=N\NC(=O)c1ccncc1 | > 100 µM | > 100 µM |  | > 100 µM | > 100 µM | > 100 µM | > 100 µM | > 100 µM | > 100 µM | > 100 µM |  |  |  |  |  |  |  |  |  | 
24 | COC(=O)CC(C(C(C)=O)C(=O)OCc1ccccc1)N1C(=O)OCC1c1ccccc1 (stereo unspecified) | > 100 µM | > 100 µM |  | > 100 µM | > 100 µM | > 100 µM | > 100 µM | > 100 µM | > 100 µM |  |  |  |  |  |  |  |  |  |  | 
25 | COc1ccc(OC)c2c3c(ccc12)C(c1ccccc1)OC3=O (stereo unspecified) | > 100 µM | > 100 µM | > 100 µM | > 100 µM | > 100 µM | > 100 µM | > 100 µM | > 100 µM | 99.7 µM |  |  |  |  |  |  |  |  |  |  | 
26 | CCOc1cc(-c2ccc[nH]2)[nH]c1/C=C1\N=C(C)C(C(=O)OC)=C1C | 0.814 µM | 0.0881 µM | 1.68 µM | 1.4 µM | 1.72 µM |  | 1.18 µM | 0.9 µM |  | 0.049 µM | 0.0319 µM | 0.0329 µM | 0.0444 µM |  | 0.0348 µM | 0.0148 µM | 0.143 µM |  | 0.0219 µM | 0.0552 µM
27 | O=c1cc(-c2ccccn2)[nH]c2ccc(Cl)cc12 |  | > 100 µM | > 100 µM | > 100 µM | > 100 µM | > 100 µM | > 100 µM | > 100 µM | > 100 µM | > 100 µM |  |  |  |  |  |  |  |  | 34 µM | 
28 | CCCCCCCCCCCCOP(N)(=O)OCCCCCCCCCCCC | > 100 µM | > 100 µM |  | > 100 µM | > 100 µM | > 100 µM | > 100 µM | > 100 µM | > 100 µM |  |  |  |  |  |  |  |  |  |  | 
29 | C#CCN(Cc1ccc2nc(N)[nH]c(=O)c2c1)c1ccc(C(=O)NC(CCC(=O)O)C(=O)O)cc1 (stereo unspecified) | > 100 µM |  | > 100 µM | > 100 µM | > 100 µM | > 100 µM | > 100 µM | > 100 µM | > 100 µM | > 100 µM |  |  |  |  |  |  |  |  |  | 
30 | Cc1cc([N+](=O)[O-])c(C)c(Br)c1C | > 100 µM | > 100 µM | > 100 µM | > 100 µM | > 100 µM | > 100 µM | > 100 µM | > 100 µM |  | > 100 µM |  |  |  |  |  |  |  |  |  | 
